The test system of the assay is fungi in Onychomycosis and tinea pedis. The experiment in a line: Tolnaftate solution concentration sufficient to kill the fungi. Conditions: used in a penetrating base. The text has this:
Tolnaftate USP (known by the trade name Tinactin ™) is a white crystalline powder that has been used as a primary agent in anti-fungal preparations. […] Other anti-fungal agents effective in fighting the fungi causing Onychomycosis and tinea pedis and suitable for use in the present invention are: Clotrimazole, Tioconazole, Nystatin, Terconazole, Butoconazole Nitrate, Unecylenic Acid, Clioquinol, Ciclopirox, Olamine, Econazole Nitrate, Triacetin, Miconazole, Flucytosine, and Ketoconazole.

Each structure is given as a SMILES string.

On to `Cc1cccc(N(C)C(=S)Oc2ccc3ccccc3c2)c1` [Tolnaftate], for which the “solution concentration sufficient to kill the fungi” value is 1%.
